One assay has as its target T1, SMARCA4 (Homo sapiens, UniProt P51532).
T1 construct: endogenous in cells
Briefly: Cellular degradation assay, SMARCA4 (Table 1). The format is cell-based.

The target of the next assay is T2, SMARCA2 (Homo sapiens, UniProt P51531).
T2 construct: endogenous in cells
The experiment in a line: SMARCA2 Cellular Degradation Assay (Western blot analysis on Jess platform). The format is cell-based. The settings on record: for DC50 / Dmax: cellular degradation; for Fold Selectivity SMARCA4/2: ratio DC50 SMARCA4 / DC50 SMARCA2. The method in brief:
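SMARCA2 remaining is given as percent of vehicle control, using actin-normalized, background-corrected electropherogram areas. Measurement was by Jess capillary immunoassay (anti-SMARCA2 with anti-β-actin) on 5 μg protein from RIPA/SDS lysates of tumor-derived cells.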
In general terms: A western blot detects proteins with antibodies after separation by electrophoresis.

Molecules are shown by their SMILES.

T1 sequence (P51532 whole entry, species assumed): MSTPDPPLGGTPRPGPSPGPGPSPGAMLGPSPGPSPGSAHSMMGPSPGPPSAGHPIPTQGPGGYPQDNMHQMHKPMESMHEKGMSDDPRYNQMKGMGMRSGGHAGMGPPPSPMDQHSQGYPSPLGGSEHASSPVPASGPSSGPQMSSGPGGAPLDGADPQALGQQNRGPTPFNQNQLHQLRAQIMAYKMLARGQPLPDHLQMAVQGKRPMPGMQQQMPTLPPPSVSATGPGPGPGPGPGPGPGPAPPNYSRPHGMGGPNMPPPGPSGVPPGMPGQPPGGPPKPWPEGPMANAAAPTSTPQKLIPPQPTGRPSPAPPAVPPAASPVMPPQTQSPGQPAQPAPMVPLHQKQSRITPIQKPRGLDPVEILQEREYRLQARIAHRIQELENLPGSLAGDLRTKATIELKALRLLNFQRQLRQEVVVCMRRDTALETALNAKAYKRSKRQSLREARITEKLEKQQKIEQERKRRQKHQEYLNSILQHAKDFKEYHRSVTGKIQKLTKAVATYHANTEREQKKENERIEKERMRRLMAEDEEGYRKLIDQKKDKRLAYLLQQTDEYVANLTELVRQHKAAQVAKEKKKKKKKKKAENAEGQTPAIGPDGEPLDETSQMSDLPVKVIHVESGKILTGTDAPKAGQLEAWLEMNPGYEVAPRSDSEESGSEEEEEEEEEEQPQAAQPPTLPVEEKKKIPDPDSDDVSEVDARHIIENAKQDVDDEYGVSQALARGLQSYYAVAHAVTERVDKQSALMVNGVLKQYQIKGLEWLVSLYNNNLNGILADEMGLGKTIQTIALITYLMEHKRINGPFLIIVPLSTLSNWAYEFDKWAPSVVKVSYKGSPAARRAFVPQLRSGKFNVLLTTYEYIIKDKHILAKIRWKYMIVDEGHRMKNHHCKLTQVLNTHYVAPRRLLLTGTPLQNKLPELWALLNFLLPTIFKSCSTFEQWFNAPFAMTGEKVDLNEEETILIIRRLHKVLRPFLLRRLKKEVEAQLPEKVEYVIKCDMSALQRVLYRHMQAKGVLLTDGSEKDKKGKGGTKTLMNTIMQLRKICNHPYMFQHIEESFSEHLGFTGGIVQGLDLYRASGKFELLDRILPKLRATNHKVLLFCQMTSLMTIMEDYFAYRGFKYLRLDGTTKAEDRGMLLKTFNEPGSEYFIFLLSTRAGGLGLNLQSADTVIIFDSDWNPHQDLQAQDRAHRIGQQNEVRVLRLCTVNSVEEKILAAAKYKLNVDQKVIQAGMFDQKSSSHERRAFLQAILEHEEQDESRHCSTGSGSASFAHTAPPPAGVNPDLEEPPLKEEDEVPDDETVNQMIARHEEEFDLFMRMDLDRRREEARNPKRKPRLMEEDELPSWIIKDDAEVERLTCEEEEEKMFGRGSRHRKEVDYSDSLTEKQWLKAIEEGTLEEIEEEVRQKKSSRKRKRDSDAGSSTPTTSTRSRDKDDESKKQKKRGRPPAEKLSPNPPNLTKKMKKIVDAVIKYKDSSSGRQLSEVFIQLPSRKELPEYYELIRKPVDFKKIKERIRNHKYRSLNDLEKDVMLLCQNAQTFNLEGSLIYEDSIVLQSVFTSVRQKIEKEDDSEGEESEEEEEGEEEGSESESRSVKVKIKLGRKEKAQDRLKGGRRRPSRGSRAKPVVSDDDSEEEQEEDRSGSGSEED
T2 sequence (P51531 whole entry, species assumed): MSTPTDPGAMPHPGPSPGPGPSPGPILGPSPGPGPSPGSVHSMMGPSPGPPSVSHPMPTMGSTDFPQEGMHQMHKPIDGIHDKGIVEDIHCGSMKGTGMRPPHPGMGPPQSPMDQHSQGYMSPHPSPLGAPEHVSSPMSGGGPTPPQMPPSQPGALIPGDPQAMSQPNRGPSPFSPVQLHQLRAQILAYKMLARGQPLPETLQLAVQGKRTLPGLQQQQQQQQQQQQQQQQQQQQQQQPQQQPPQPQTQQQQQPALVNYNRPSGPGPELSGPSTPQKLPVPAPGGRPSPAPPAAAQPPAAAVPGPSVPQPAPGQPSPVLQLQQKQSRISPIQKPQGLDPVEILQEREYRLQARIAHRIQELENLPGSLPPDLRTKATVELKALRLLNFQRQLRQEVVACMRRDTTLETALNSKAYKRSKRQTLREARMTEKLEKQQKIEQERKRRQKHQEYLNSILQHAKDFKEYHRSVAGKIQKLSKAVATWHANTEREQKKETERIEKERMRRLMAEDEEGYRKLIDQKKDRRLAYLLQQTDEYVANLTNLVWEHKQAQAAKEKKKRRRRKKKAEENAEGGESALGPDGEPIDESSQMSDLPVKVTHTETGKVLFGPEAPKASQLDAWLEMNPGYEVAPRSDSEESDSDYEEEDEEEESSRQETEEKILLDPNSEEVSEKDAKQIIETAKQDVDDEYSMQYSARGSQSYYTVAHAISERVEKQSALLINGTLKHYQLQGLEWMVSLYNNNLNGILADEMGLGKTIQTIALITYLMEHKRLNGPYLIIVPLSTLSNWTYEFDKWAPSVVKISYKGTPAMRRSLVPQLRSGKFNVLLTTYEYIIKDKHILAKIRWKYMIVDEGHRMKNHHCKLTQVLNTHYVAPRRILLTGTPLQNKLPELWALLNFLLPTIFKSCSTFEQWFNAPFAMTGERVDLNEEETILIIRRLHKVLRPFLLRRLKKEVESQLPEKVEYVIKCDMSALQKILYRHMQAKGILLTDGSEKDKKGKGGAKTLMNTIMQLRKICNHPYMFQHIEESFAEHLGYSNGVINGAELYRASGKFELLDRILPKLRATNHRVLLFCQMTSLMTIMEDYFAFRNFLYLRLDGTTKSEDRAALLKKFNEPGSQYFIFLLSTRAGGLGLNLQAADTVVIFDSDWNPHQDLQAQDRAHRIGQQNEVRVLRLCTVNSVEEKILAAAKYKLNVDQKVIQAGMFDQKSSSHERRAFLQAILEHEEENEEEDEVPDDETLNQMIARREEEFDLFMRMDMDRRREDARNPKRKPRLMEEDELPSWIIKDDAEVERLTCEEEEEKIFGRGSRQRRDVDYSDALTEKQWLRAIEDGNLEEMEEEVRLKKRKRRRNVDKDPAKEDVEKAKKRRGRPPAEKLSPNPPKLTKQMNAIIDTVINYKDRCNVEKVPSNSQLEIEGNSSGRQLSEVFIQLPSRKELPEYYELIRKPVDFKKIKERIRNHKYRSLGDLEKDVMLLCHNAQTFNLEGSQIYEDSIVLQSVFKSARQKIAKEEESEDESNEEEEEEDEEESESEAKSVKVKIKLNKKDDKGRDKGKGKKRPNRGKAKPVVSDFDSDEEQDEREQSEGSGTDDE

Take `O=C1CC[C@H](c2ccc(N3CCC(CCN4CCC(C(=O)NCC5(c6ccccc6)CCN(c6cnnc(-c7ccccc7O)c6)CC5)C5CC54)CC3)cc2)C(=O)N1` (mixture of isomers) [Example 84, rac-2-(2-(1-(4-((r)-2,6-dioxopiperidin-3-yl)phenyl)piperidin-4-yl)ethyl)-n-((1-(6-(2-hydroxyphenyl)pyridazin-4-yl)-4-phenylpiperidin-4-yl)methyl)-2-azabicyclo[4.1.0]heptane-5-carboxamide]: at SMARCA4, half-maximal degradation (DC50) was put at 46.5 nM and the Dmax (as a rule, the largest share of the target that was removed) was 61.9%. At SMARCA2, half-maximal degradation (DC50) was put at 4.23 nM, the Dmax is 89.5% and the “Fold Selectivity SMARCA4/2” value is 11.

In turn, `CC1(NC(=O)C2(c3ccccc3)CCN(c3cnnc(-c4ccccc4O)c3)CC2)CCN(C(=O)CN2CCC(c3ccc(N[C@@H]4CCC(=O)NC4=O)cc3)CC2)CC1` (racemic) [Example 86, rac-(r)-n-(1-(2-(4-(4-((2,6-dioxopiperidin-3-yl)amino)phenyl)piperidin-1-yl)acetyl)-4-methylpiperidin-4-yl)-1-(6-(2-hydroxyphenyl)pyridazin-4-yl)-4-phenylpiperidine-4-carboxamide] yielded a Dmax on SMARCA4 of 53.7%. On SMARCA2, the DC50 – broadly, the concentration at which degradation of the target reaches its halfway point – is 22.1 nM; the Dmax was found to be 70.5%; the “Fold Selectivity SMARCA4/2” value is 452.

In turn, `CN(C(=O)C1(c2ccnn2C)CCN(c2cnnc(-c3ccccc3O)c2)CC1)C1CCN(CCC2CCN(c3ccc(C4CCC(=O)NC4=O)cc3)CC2)CC1` (racemic) [Example 87, rac-N-{1-[2-(1-{4-[(3r)-2,6-dioxopiperidin-3-yl]phenyl}piperidin-4-yl)ethyl]piperidin-4-yl}-1-[6-(2-hydroxyphenyl)pyridazin-4-yl]-N-methyl-4-(1-methyl-1H-pyrazol-5-yl)piperidine-4-carboxamide] yielded a Dmax at SMARCA4 of 22.5%. At SMARCA2, the DC50 came out at 2.79 nM, the Dmax amounted to 87.7% and the “Fold Selectivity SMARCA4/2” value is 3583.

With `Cc1cc(C2(C(=O)N(C)C3CCN(CCC4CCN(c5ccc(C6CCC(=O)NC6=O)cc5)CC4)CC3)CCN(c3cnnc(-c4ccccc4O)c3)CC2)on1` (racemic) [Example 88, rac-N-{1-[2-(1-{4-[(3R)-2,6-dioxopiperidin-3-yl]phenyl}piperidin-4-yl)ethyl]piperidin-4-yl}-1-[6-(2-hydroxyphenyl)pyridazin-4-yl]-N-methyl-4-(3-methyl-1,2-oxazol-5-yl)piperidine-4-carboxamide], the Dmax on SMARCA4 is 20.2%. In addition, at SMARCA2, it took 7.76 nM to reach half-maximal degradation (DC50), the Dmax came out at 78.4% and the “Fold Selectivity SMARCA4/2” value was found to be 1289.

On SMARCA4, `CN(C(=O)C1(c2cnn(C)c2)CCN(c2cnnc(-c3ccccc3O)c2)CC1)C1CCN(CC2CCN(c3ccc(C4CCC(=O)NC4=O)cc3)CC2)CC1` (racemic) [Example 89, rac-N-{1-[(1-{4-[(3R)-2,6-dioxopiperidin-3-yl]phenyl}piperidin-4-yl)methyl]piperidin-4-yl}-1-[6-(2-hydroxyphenyl)pyridazin-4-yl]-N-methyl-4-(1-methyl-1H-pyrazol-4-yl)piperidine-4-carboxamide] came in with a Dmax of 47.3%. At SMARCA2, the DC50 came out at 3.8 nM, the Dmax turned out to be 82.1% and the “Fold Selectivity SMARCA4/2” value turned out to be 2634.

In the case of `Cc1cc(C2(C(=O)N(C)C3CCN(CC4CCN(c5ccc(C6CCC(=O)NC6=O)cc5)CC4)CC3)CCN(c3cnnc(-c4ccccc4O)c3)CC2)on1` (racemic) [Example 90, rac-N-{1-[(1-{4-[(3R)-2,6-dioxopiperidin-3-yl]phenyl}piperidin-4-yl)methyl]piperidin-4-yl}-1-[6-(2-hydroxyphenyl)pyridazin-4-yl]-N-methyl-4-(3-methyl-1,2-oxazol-5-yl)piperidine-4-carboxamide], the Dmax on SMARCA4 turned out to be 34.8%. Also, at SMARCA2, it took 8.55 nM to reach half-maximal degradation (DC50), the Dmax was 76.5% and the “Fold Selectivity SMARCA4/2” value is on record as 1170.

On SMARCA4, `CN(C(=O)C1(c2ccnn2C)CCN(c2cnnc(-c3ccccc3O)c2)CC1)C1CCN(CC2CCN(c3ccc(C4CCC(=O)NC4=O)cc3)CC2)CC1` (racemic) [Example 91, rac-N-{1-[(1-{4-[(3R)-2,6-dioxopiperidin-3-yl]phenyl}piperidin-4-yl)methyl]piperidin-4-yl}-1-[6-(2-hydroxyphenyl)pyridazin-4-yl]-N-methyl-4-(1-methyl-1H-pyrazol-5-yl)piperidine-4-carboxamide] registered a Dmax of 41.8%. Besides, on SMARCA2, the DC50 was found to be 4.52 nM, the Dmax was 79.8% and the “Fold Selectivity SMARCA4/2” value amounted to 2212.

As to `CC(C)c1cc(C2(C(=O)N3CC4(CN(CC5CCN(c6ccc(C7CCC(=O)NC7=O)cc6)CC5)C4)C3)CCN(c3cnnc(-c4ccccc4O)c3)CC2)no1` (racemic) [Example 92, rac-(3R)-3-(4-{4-[(6-{1-[6-(2-hydroxyphenyl)pyridazin-4-yl]-4-[5-(propan-2-yl)-1,2-oxazol-3-yl]piperidine-4-carbonyl}-2,6-diazaspiro[3.3]heptan-2-yl)methyl]piperidin-1-yl}phenyl)piperidine-2,6-dione], on SMARCA4, half-maximal degradation (DC50) was put at 92.5 nM and the Dmax amounted to 50.2%. Besides, at SMARCA2, the DC50 was determined as 4.81 nM, the Dmax stood at 80.8% and the “Fold Selectivity SMARCA4/2” value is on record as 19.

Compound `Cn1nccc1C1(C(=O)N2CC3(CN(CC4CCN(c5ccc(C6CCC(=O)NC6=O)cc5)CC4)C3)C2)CCN(c2cnnc(-c3ccccc3O)c2)CC1` (racemic) [Example 93, rac-(3R)-3-(4-{4-[(6-{1-[6-(2-hydroxyphenyl)pyridazin-4-yl]-4-(1-methyl-1H-pyrazol-5-yl)piperidine-4-carbonyl}-2,6-diazaspiro[3.3]heptan-2-yl)methyl]piperidin-1-yl}phenyl)piperidine-2,6-dione] gave a Dmax at SMARCA4 of 33.8%. Further, on SMARCA2, it took 21.1 nM to reach half-maximal degradation (DC50), the Dmax worked out at 69.8% and the “Fold Selectivity SMARCA4/2” value is reported as 474.

Consider `CN(C(=O)C1(c2cnn(C)c2)CCN(c2cnnc(-c3ccccc3O)c2)CC1)C1CCN(CCC2CCN(c3ccc(C4CCC(=O)NC4=O)cc3)CC2)CC1` (racemic) [Example 94, rac-N-{1-[2-(1-{4-[(3R)-2,6-dioxopiperidin-3-yl]phenyl}piperidin-4-yl)ethyl]piperidin-4-yl}-1-[6-(2-hydroxyphenyl)pyridazin-4-yl]-N-methyl-4-(1-methyl-1H-pyrazol-4-yl)piperidine-4-carboxamide], for which the Dmax on SMARCA4 was 33%. In addition, at SMARCA2, the DC50 turned out to be 2.24 nM, the Dmax turned out to be 87.3% and the “Fold Selectivity SMARCA4/2” value amounted to 4454.

For `Cc1ccnn1C1(C(=O)N(C)C2CCN(CC3CCN(c4ccc(C5CCC(=O)NC5=O)cc4)CC3)CC2)CCN(c2cnnc(-c3ccccc3O)c2)CC1` (racemic) [Example 96, rac-N-{1-[(1-{4-[(3R)-2,6-dioxopiperidin-3-yl]phenyl}piperidin-4-yl)methyl]piperidin-4-yl}-1-[6-(2-hydroxyphenyl)pyridazin-4-yl]-N-methyl-4-(5-methyl-1H-pyrazol-1-yl)piperidine-4-carboxamide], on SMARCA4, the DC50 is 39.6 nM and the Dmax was 60%. Further, at SMARCA2, the DC50 stood at 4.3 nM, the Dmax worked out at 87.1% and the “Fold Selectivity SMARCA4/2” value came out at 9.

As to `CN(C(=O)C1(c2cc3ccccn3n2)CCN(c2cnnc(-c3ccccc3O)c2)CC1)C1CCN(CC2CCN(c3ccc(C4CCC(=O)NC4=O)cc3)CC2)CC1` (racemic) [Example 97, rac-N-{1-[(1-{4-[(3R)-2,6-dioxopiperidin-3-yl]phenyl}piperidin-4-yl)methyl]piperidin-4-yl}-1-[6-(2-hydroxyphenyl)pyridazin-4-yl]-N-methyl-4-{pyrazolo[1,5-a]pyridin-2-yl}piperidine-4-carboxamide], at SMARCA4, it took 20.7 nM to reach half-maximal degradation (DC50) and the Dmax is 65.8%. On SMARCA2, it took 3.14 nM to reach half-maximal degradation (DC50), the Dmax turned out to be 86.6% and the “Fold Selectivity SMARCA4/2” value was found to be 7.

At SMARCA4, `CC(C)c1cc(C2(C(=O)N(C)C3CCN(CC4CCN(c5ccc(C6CCC(=O)NC6=O)cc5)CC4)CC3)CCN(c3cnnc(-c4ccccc4O)c3)CC2)no1` (racemic) [Example 98, rac-N-{1-[(1-{4-[(3R)-2,6-dioxopiperidin-3-yl]phenyl}piperidin-4-yl)methyl]piperidin-4-yl}-1-[6-(2-hydroxyphenyl)pyridazin-4-yl]-N-methyl-4-[5-(propan-2-yl)-1,2-oxazol-3-yl]piperidine-4-carboxamide] came in with a DC50 of 57.9 nM and a Dmax of 58.1%. Moreover, at SMARCA2, half-maximal degradation (DC50) was put at 5.55 nM, the Dmax was found to be 86.7% and the “Fold Selectivity SMARCA4/2” value was found to be 10.

In turn, `CC1(NC(=O)C2(c3ccccc3)CCN(c3cnnc(-c4ccccc4O)c3)CC2)CCN(CC2CCN(c3ccc(N[C@@H]4CCC(=O)NC4=O)cn3)CC2)CC1` (racemic) [Example 99, rac-(r)-n-(1-((1-(5-((2,6-dioxopiperidin-3-yl)amino)pyridin-2-yl)piperidin-4-yl)methyl)-4-methylpiperidin-4-yl)-1-(6-(2-hydroxyphenyl)pyridazin-4-yl)-4-phenylpiperidine-4-carboxamide] returned a Dmax on SMARCA4 of 46.9%. Moreover, on SMARCA2, the DC50 is 48.1 nM, the maximal degradation (Dmax) was 57.3% and the “Fold Selectivity SMARCA4/2” value came to 208.

Turning to `O=C1CC[C@@H](c2cccc(N3CCC(CN4CCC5(CC4)CN(C(=O)C4(c6ccccc6)CCN(c6cnnc(-c7ccccc7O)c6)CC4)C5)CC3)c2)C(=O)N1` (racemic) [Example 101, rac-®-3-(3-(4-((2-(1-(6-(2-hydroxyphenyl)pyridazin-4-yl)-4-phenylpiperidine-4-carbonyl)-2,7-diazaspiro[3.5]nonan-7-yl)methyl)piperidin-1-yl)phenyl)piperidine-2,6-dione], at SMARCA4, the DC50 came to 114 nM and the Dmax is 60.2%. Also, on SMARCA2, the DC50 worked out at 19.5 nM, the Dmax is 71% and the “Fold Selectivity SMARCA4/2” value stood at 6.

For the origin of these results see patent publication US20250051344A1, “BIFUNCTIONAL SELECTIVE DEGRADERS OF SMARCA2 AND THERAPEUTIC USES THEREOF” (Nurix Therapeutics, Inc., priority 2023, published 2025).
